The target in assay [1] is T1, human His-PIM1 [2-313] (Homo sapiens, UniProt P11309).
T1 construct: purified human His-PIM1 [2-313] enzyme; His (N); purchased University of Dundee, Scotland; host or cells: baculovirus system
As to the kind of experiment: PIM1 in-vitro mobility shift assay (Caliper LC3000, FL-Ahx-Bad phosphorylation). It counts as biochemical. The conditions noted are these: 1.5 h; percent inhibition at 0.3 uM compound; read-out: PIM1 % I at 0.3 uM. An outline of the steps: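 Compound preincubated 20 min at 25 °C with 2.4 nM PIM1, 3.6 µM FL-Ahx-Bad peptide and 240 µM ATP (1.2× mix concentrations). Reaction started with 24 mM MgCl2 mix, run 90 min at 25 °C, EDTA-stopped. Phospho/unphospho peptide separated by microfluidic mobility shift; percent inhibition from ratiometric turnover.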

The target in assay [2] is T2, human His-PIM2 [23-299] (Homo sapiens, UniProt Q9P1W9).
T2 construct: purified human His-PIM2 [23-299] enzyme; His (N); host or cells: E. coli
As to the kind of experiment: PIM2 in-vitro mobility shift assay (Caliper LC3000, FL-Ahx-Bad phosphorylation). The class given is biochemical. The conditions noted are these: 1.5 h; percent inhibition at 0.3 uM compound; read-out: PIM2 % I at 0.3 uM.

Counter-ions that a name gives are not always drawn.

T2 sequence (Q9P1W9 23-299): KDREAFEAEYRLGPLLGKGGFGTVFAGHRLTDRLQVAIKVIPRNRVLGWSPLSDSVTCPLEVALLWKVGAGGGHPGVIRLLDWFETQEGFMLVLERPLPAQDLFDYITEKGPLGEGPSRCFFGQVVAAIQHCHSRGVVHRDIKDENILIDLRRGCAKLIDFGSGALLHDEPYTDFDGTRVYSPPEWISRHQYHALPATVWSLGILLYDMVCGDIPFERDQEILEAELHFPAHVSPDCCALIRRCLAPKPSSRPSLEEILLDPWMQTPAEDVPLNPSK
T1 sequence (P11309 2-313): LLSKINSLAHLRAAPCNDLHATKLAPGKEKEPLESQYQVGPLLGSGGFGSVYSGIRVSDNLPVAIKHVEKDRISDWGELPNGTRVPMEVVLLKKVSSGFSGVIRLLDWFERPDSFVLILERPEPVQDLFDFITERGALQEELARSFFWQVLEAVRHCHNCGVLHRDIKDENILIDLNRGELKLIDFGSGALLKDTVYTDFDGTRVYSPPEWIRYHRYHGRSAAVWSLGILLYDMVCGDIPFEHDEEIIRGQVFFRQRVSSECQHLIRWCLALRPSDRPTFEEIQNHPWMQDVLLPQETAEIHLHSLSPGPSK

Consider `COc1cccc(/C=C2\SC(=O)NC2=O)c1N1CCNCC1` [Example 97, (Z)-5-(3-methoxy-2-(piperazin-1-yl)benzylidene)thiazolidine-2,4-dione hydrochloride], for which the inhibition at 0.3 µM in assay [1] was more than 95%; in assay [2], 86.4%.

With `O=C1NC(=O)/C(=C/c2cccc(Cl)c2N2CCNCC2)S1` [Example 98, (Z)-5-(3-chloro-2-(piperazin-1-yl)benzylidene)thiazolidine-2,4-dione hydrochloride], the inhibition at 0.3 µM in assay [1] was more than 95%; in assay [2] it was 81.4%.

Consider `COc1cc(/C=C2\SC(=O)NC2=O)c(N2CCC(CN)C2)cc1OC` (stereo not shown) [Example 99, (Z)-5-(2-(3-(aminomethyl)pyrrolidin-1-yl)-4,5-dimethoxybenzylidene)thiazolidine-2,4-dione hydrochloride], for which the inhibition at 0.3 µM in assay [1] and in assay [2] was more than 95% throughout.

Regarding `COc1cc(/C=C2\SC(=O)NC2=O)c(N2CC[C@@H](N)C2)cc1OC` [Example 100, (R,Z)-5-(2-(3-aminopyrrolidin-1-yl)-4,5-dimethoxybenzylidene)thiazolidine-2,4-dione hydrochloride], the inhibition at 0.3 µM is 93% in assay [1] and 93.9% in assay [2].

On to `COc1cc(/C=C2\SC(=O)NC2=O)c(N2CC[C@H](N)C2)cc1OC` [Example 101, (S,Z)-5-(2-(3-aminopyrrolidin-1-yl)-4,5-dimethoxybenzylidene)thiazolidine-2,4-dione hydrochloride], for which the inhibition at 0.3 µM in assay [1] and in assay [2] was more than 95% throughout.

Regarding `O=C1NC(=O)/C(=C/c2ccccc2N2CCCN(C(=O)C3CCCNC3)CC2)S1` (stereo not shown) [Example 102, (Z)-5-(2-(4-(piperidine-3-carbonyl)-1,4-diazepan-1-yl)benzylidene)thiazolidine-2,4-dione hydrochloride], the inhibition at 0.3 µM in assay [1] amounted to 93.3%; in assay [2], 91.9%.

Turning to `NCCCCC(=O)N1CCCN(c2ccccc2/C=C2\SC(=O)NC2=O)CC1` [Example 103, (Z)-5-(2-(4-(5-aminopentanoyl)-1,4-diazepan-1-yl)benzylidene)thiazolidine-2,4-dione hydrochloride], the inhibition at 0.3 µM is more than 95% in assay [1] and 88.7% in assay [2].

Turning to `NCCCC(=O)N1CCCN(c2ccccc2/C=C2\SC(=O)NC2=O)CC1` [Example 104, (Z)-5-(2-(4-(4-aminobutanoyl)-1,4-diazepan-1-yl)benzylidene)thiazolidine-2,4-dione hydrochloride], the inhibition at 0.3 µM is more than 95% in assay [1] and 92.4% in assay [2].

As for `NCCC(=O)N1CCCN(c2ccccc2/C=C2\SC(=O)NC2=O)CC1` [Example 105, (Z)-5-(2-(4-(3-aminopropanoyl)-1,4-diazepan-1-yl)benzylidene)thiazolidine-2,4-dione hydrochloride], the inhibition at 0.3 µM is more than 95% in assay [1] and 92.4% in assay [2].

Consider `O=C1NC(=O)/C(=C/c2ccccc2N2CCCNCC2)S1` [Example 106, (Z)-5-(2-(1,4-diazepan-1-yl)benzylidene)thiazolidine-2,4-dione hydrochloride], for which the figures for the inhibition at 0.3 µM in assay [1] and in assay [2] were more than 95% and 92.8%, respectively.

In the case of `NCCCC(=O)N1CCN(c2ccccc2/C=C2\SC(=O)NC2=O)CC1` [Example 107, (Z)-5-(2-(4-(4-aminobutanoyl)piperazin-1-yl)benzylidene)thiazolidine-2,4-dione hydrochloride], the inhibition at 0.3 µM in assay [1] and in assay [2] was more than 95% throughout.

`NCCCCC(=O)N1CCN(c2ccccc2/C=C2\SC(=O)NC2=O)CC1` [Example 108, (Z)-5-(2-(4-(5-aminopentanoyl)piperazin-1-yl)benzylidene)thiazolidine-2,4-dione hydrochloride]: the inhibition at 0.3 µM in assay [1] and in assay [2] was more than 95% in each case.

As to `O=C1NC(=O)/C(=C/c2ccccc2N2CCN(C(=O)c3ccc(CN4CCNCC4)cc3)CC2)S1` [Example 109, (Z)-5-(2-(4-(4-(piperazin-1-ylmethyl)benzoyl)piperazin-1-yl)benzylidene)thiazolidine-2,4-dione hydrochloride], the inhibition at 0.3 µM in assay [1] came to 64.2%; in assay [2], 65.8%.

With `NCc1cccc(C(=O)N2CCN(c3ccccc3/C=C3\SC(=O)NC3=O)CC2)c1` [Example 110, (Z)-5-(2-(4-(3-(aminomethyl)benzoyl)piperazin-1-yl)benzylidene)thiazolidine-2,4-dione hydrochloride], the inhibition at 0.3 µM in assay [1] came to 90.9%; in assay [2], 90.7%.

For the compound `COc1cc(/C=C2\SC(=O)NC2=O)c(N2CCC(NCCN)C2)cc1OC` (stereo not shown) [Example 111, (Z)-5-(2-(3-(2-aminoethylamino)pyrrolidin-1-yl)-4,5-dimethoxybenzylidene)thiazolidine-2,4-dione hydrochloride], the inhibition at 0.3 µM in assay [1] and in assay [2] was more than 95% each time.

For the compound `NCCN1CCN(c2ccccc2/C=C2\SC(=O)NC2=O)CC1` [Example 112, (Z)-5-(2-(4-(2-aminoethyl)piperazin-1-yl)benzylidene)thiazolidine-2,4-dione hydrochloride], the inhibition at 0.3 µM in assay [1] and in assay [2] was more than 95% in each case.

With `CNCCNC1CCN(c2cc(OC)c(OC)cc2/C=C2\SC(=O)NC2=O)C1` (stereo not shown) [Example 113, (Z)-5-(4,5-dimethoxy-2-(3-(2-(methylamino)ethylamino)pyrrolidin-1-yl)benzylidene)thiazolidine-2,4-dione hydrochloride], the inhibition at 0.3 µM in assay [1] and in assay [2] was more than 95% in each case.

As for `CNCCN1CCN(c2ccccc2/C=C2\SC(=O)NC2=O)CC1` [Example 114, (Z)-5-(2-(4-(2-(methylamino)ethyl)piperazin-1-yl)benzylidene)thiazolidine-2,4-dione hydrochloride], the inhibition at 0.3 µM in assay [1] and in assay [2] was more than 95% throughout.

In the case of `O=C1NC(=O)/C(=C/c2ccccc2N2CCNCC2)S1` [Example 115, (5Z)-5-(2-piperazin-1-ylbenzylidene)-1,3-thiazolidine-2,4-dione hydrochloride], the inhibition at 0.3 µM came out at 93.3% in assay [1] and 76.1% in assay [2].

In the case of `O=C1NC(=O)/C(=C/c2ccccc2N2CCN(C(=O)C3CCCNC3)CC2)S1` (stereo not shown) [Example 116, 5-(2-(4-(piperidine-3-carbonyl)piperazin-1-yl)benzylidene)thiazolidine-2,4-dione hydrochloride], the inhibition at 0.3 µM in assay [1] and in assay [2] was more than 95% each time.

For the compound `O=C1NC(=O)/C(=C/c2ccccc2N2CCN(C(=O)C3CNC3)CC2)S1` [Example 117, (5Z)-5-{2-[4-(azetidin-3-ylcarbonyl)piperazin-1-yl]benzylidene}-1,3-thiazolidine-2,4-dione hydrochloride], the inhibition at 0.3 µM in assay [1] and in assay [2] was more than 95% each time.

`COc1cc(/C=C2\SC(=O)NC2=O)c(N2CCC(N)C2)cc1OC` (stereo not shown) [Example 118, (5Z)-5-[2-(3-aminopyrrolidin-1-yl)-4,5-dimethoxybenzylidene]-1,3-thiazolidine-2,4-dione hydrochloride]: the inhibition at 0.3 µM in assay [1] and in assay [2] was more than 95% in each case.

In the case of `COc1cc(/C=C2\SC(=O)NC2=O)c(N2CC[C@@H](NC(=O)CCCCN)C2)cc1OC` [Example 119, (R,Z)-5-amino-N-(1-(2-((2,4-dioxothiazolidin-5-ylidene)methyl)-4,5-dimethoxyphenyl)pyrrolidin-3-yl)pentanamide hydrochloride], the figures for the inhibition at 0.3 µM in assay [1] and in assay [2] were 56.2% and 20.1%, respectively.

Consider `COc1cc(/C=C2\SC(=O)NC2=O)c(N2CC[C@H](NC(=O)CCCCN)C2)cc1OC` [Example 120, (S,Z)-5-amino-N-(1-(2-((2,4-dioxothiazolidin-5-ylidene)methyl)-4,5-dimethoxyphenyl)pyrrolidin-3-yl)pentanamide hydrochloride], for which the inhibition at 0.3 µM in assay [1] stood at 58.9%; in assay [2] it was 22.2%.

Regarding `COc1cc(/C=C2\SC(=O)NC2=O)c(N2CC[C@H](NCCCN)C2)cc1OC` [Example 121, (S,Z)-5-(2-(3-(3-aminopropylamino)pyrrolidin-1-yl)-4,5-dimethoxybenzylidene)thiazolidine-2,4-dione hydrochloride], the inhibition at 0.3 µM in assay [1] is more than 95%; in assay [2] it was 87.4%.

As for `COc1cc(/C=C2\SC(=O)NC2=O)c(N2CC[C@@H](NCCCN)C2)cc1OC` [Example 122A, (R,Z)-5-(2-(3-(3-aminopropylamino)pyrrolidin-1-yl)-4,5-dimethoxybenzylidene)thiazolidine-2,4-dione hydrochloride], the inhibition at 0.3 µM stood at 88.2% in assay [1] and 55% in assay [2].

Regarding `COCCOc1cccc(/C=C2\SC(=O)NC2=O)c1N1CCC[C@@H](N)C1` [Example 122AA, (R,Z)-5-(2-(3-aminopiperidin-1-yl)-3-(2-methoxyethoxy)benzylidene)thiazolidine-2,4-dione hydrochloride], the inhibition at 0.3 µM in assay [1] and in assay [2] was more than 95% each time.

Regarding `COCCOc1cccc(/C=C2\SC(=O)NC2=O)c1N1CC[C@H](N)C1` [Example 122AB, (S,Z)-5-(2-(3-aminopyrrolidin-1-yl)-3-(2-methoxyethoxy)benzylidene)thiazolidine-2,4-dione hydrochloride], the inhibition at 0.3 µM in assay [1] and in assay [2] was more than 95% in each case.

As for `N[C@@H]1CCCN(c2c(/C=C3\SC(=O)NC3=O)cccc2OC2CCCC2)C1` [Example 122AC, (R,Z)-5-(2-(3-aminopiperidin-1-yl)-3-(cyclopentyloxy)benzylidene)thiazolidine-2,4-dione hydrochloride], the inhibition at 0.3 µM in assay [1] and in assay [2] was more than 95% in each case.

Values taken from US8901307B2, “Chemical compounds 251” (AstraZeneca AB, priority 2008, dated 2014).
